The values below come from patent US6737383B1, “Herbicidal oxadiazolidines” (priority 1999, dated 2004).

For one assay, the system named is spring barley. The experiment in a line: Test E spring barley. Format: in vivo, Hordeum vulgare. The note with it: Postemergence. The method, boiled down: (§1)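 Compound formulated with surfactant in a non-phytotoxic solvent (postemergence: young 1- to 4-leaf plants); held in greenhouse approx. 21–28 days; visual assessment against untreated plants.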
A further assay relates to barnyardgrass. The experiment in a line: Test C postemergence barnyardgrass. Format: in vivo, Echinochloa crus-galli. As to conditions: 0 to 100 scale, 0 no effect, 100 complete control. Here is the method:
Compounds evaluated in this test were formulated in a non-phytotoxic solvent mixture which included a surfactant and applied to plants that were grown for various periods of time before treatment (postemergence application). A mixture of sandy loam soil and greenhouse potting mix in a 60:40 ratio was used for the postemergence test.
Plantings of these crops and weed species were adjusted to produce plants of appropriate size for the postemergence test. All plant species were grown using normal greenhouse practices. Crop and weed species include arrowleaf sida (Sida rhombifolia), barnyardgrass (Echinochloa crus-galli), cocklebur (Xanthium strumarium), common ragweed (Ambrosia elatior), corn (Zea mays), cotton (Gossypium hirsutum), eastern black nightshade (Solanum ptycanthum), fall panicum (Panicum dichotomiflorum), field bindweed (Convolvulus arvensis), giant foxtail (Setaria faberii), hairy beggarticks (Bidens pilosa), ivyleaf morningglory (Ipomoea hederacea), johnsongrass (Sorghum halepense), ladysthumb smartweed (Polygonum persicaria), lambsquarters (Chenopodium album), large crabgrass (Digitaria sanguinalis), purple nutsedge (Cyperus rotundus), redroot pigweed (Amaranthus retroflexus), soybean (Glycine max), surinam grass (Brachiaria decumbens), velvetleaf (Abutilon theophrasti) and wild poinsettia (Euphorbia heterophylla).
Treated plants and untreated controls were maintained in a greenhouse for approximately 14, to 21 days, after which all treated plants were compared to untreated controls and visually evaluated. Plant response ratings, summarized in Table C, were based upon a 0 to 100 scale where 0 was no effect and 100 was complete control. A dash response (−) means no test result.

The next assay relates to kochia. The experiment in a line: Test E kochia. Format: in vivo, Kochia scoparia. The note with it: Postemergence. As for the experimental part: (§2) Compounds evaluated in this test were formulated in a non-phytotoxic solvent mixture which included a surfactant and applied to plants that were in the 1- to 4-leaf stage (postemergence application). A mixture of sandy loam soil and greenhouse potting mix in a 60:40 ratio was used for the postemergence test.
(§3) Plantings of these crops and weed species were adjusted to produce plants of appropriate size for the postemergence test. All plant species were grown using normal greenhouse practices. Crop and weed species include annual bluegrass (Poa annua), blackgrass (Alopecurus myosuroides), black nightshade (Solanum nigra), chickweed (Stellaria media), common poppy (Papaver rhoeas), deadnettle (Lamium amplexicaule), downy brome (Bromus tectorum), field violet (Viola arvensis), galium (Galium aparine), green foxtail (Setaria viridis), Italian ryegrass (Lolium multiflorum), jointed goatgrass (Aegilops cylindrica), kochia (Kochia scoparia), lambsquarters (Chenopodium album), littleseed canarygrass (Phalaris minor), rape (Brassica napus), redroot pigweed (Amaranthus retroflexus), Russian thistle (Salsola kali), scentless chamomile (Matricaria inodora), spring barley (Hordeum vulgare), sugar beet (Beta vulgaris), sunflower (Helianthus annuus), ivyleaf speedwell (Veronica hederaefolia), spring wheat (Triticum aestivum), winter wheat (Triticum aestivum), wild buckwheat (Polygonum convolvulus), wild mustard (Sinapis arvensis), wild oat (Avena fatua), windgrass (Apera spica-venti) and winter barley (Hordeum vulgare).
(§4) Treated plants and untreated controls were maintained in a greenhouse for approximately 21 to 28 days, after which all treated plants were compared to untreated controls and visually evaluated. […] A dash response (-) means no test result.

The test system of a further assay is hairy beggarticks. Nature of the assay: Test C postemergence hairy beggarticks. The note with it: 0 to 100 scale, 0 no effect, 100 complete control. The assay is classed as in vivo, Bidens pilosa. The method in brief: (§5)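 Foliar postemergence treatment of greenhouse plants grown in 60:40 sandy loam:potting mix; compounds delivered in non-phytotoxic solvent with surfactant. Evaluation is visual, 0–100, after ~14–21 d.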

The next assay deals with wild buckwheat. Nature of the assay: Test E wild buckwheat. The note with it: Preemergence. The assay is classed as in vivo, Polygonum convolvulus.
Another assay deals with galium. The experiment in a line: Test E galium. Format: in vivo, Galium aparine. The note with it: Postemergence. As for the experimental part:
[…] A mixture of sandy loam soil and greenhouse potting mix in a 60:40 ratio was used for the postemergence test.
as §3, §4

A further assay concerns windgrass. Nature of the assay: Test E windgrass. Format: in vivo, Apera spica-venti. The note with it: Preemergence.
The test system of another assay is ivyleaf speedwell. Nature of the assay: Test E postemergence ivyleaf speedwell. The assay is classed as in vivo, Veronica hederaefolia. As for the experimental part:
as §2, §3, §4

For another assay, the system named is giant foxtail. Nature of the assay: Test C postemergence giant foxtail. The assay is classed as in vivo, Setaria faberii. The note with it: 0 to 100 scale, 0 no effect, 100 complete control. The method in brief: as §5
Another assay deals with Russian thistle. Nature of the assay: Test E Russian thistle. Format: in vivo, Salsola kali. The note with it: Postemergence. The method, boiled down: as §1
In a further assay the test system is downy brome. The experiment in a line: Test E downy brome. The assay is classed as in vivo, Bromus tectorum. The note with it: Postemergence; for Plant response rating, Downy brome: 0 to 100 scale; for Plant response rating, Downy brortie: Rate 250 g/ha, 0 to 100 scale (0 no effect, 100 complete control). As for the experimental part: as §2, §3, §4
The next assay deals with rape. Nature of the assay: Test E rape. Format: in vivo, Brassica napus. As to conditions: Postemergence. The method, boiled down:
as §1

The next assay deals with morningglory. Nature of the assay: Test A morningglory. The assay is classed as in vivo, Ipomoea spp. The note with it: 0 to 10 scale where 0 is no effect and 10 is complete control. Here is the method:
Seeds of barnyardgrass (Echinochloa crus-galli), crabgrass (Digitaria spp.), morningglory (Ipomoea spp.), and velvetleaf (Abutilon theophrasti) were planted into a sandy loam soil and treated preemergence by soil drench with test chemicals formulated in a non-phytotoxic solvent mixture which includes a surfactant At the same time, these crop and weed species were also treated postemergence sprayed to runoff, with test chemicals formulated in the same manner.
Plants ranged in height from two to eighteen cm and were in the one to two leaf stage for the postemergence treatment. Treated plants and untreated controls were maintained in a greenhouse for approximately eleven days, after which all treated plants were compared to untreated controls and visually evaluated for injury. Plant response ratings, summarized in Table A, are based on a 0 to 10 scale where 0 is no effect and 10 is complete control.

[1] abbreviates: Rate 250 g/ha, 0 to 100 scale (0 no effect, 100 complete control).
[2] abbreviates: Rate 62 g/ha, 0 to 100 scale, 0 no effect, 100 complete control.
Where [3] appears, read: Rate 125 g/ha, 0 to 100 scale (0 no effect, 100 complete control).
Where [4] appears, read: Rate 500 g/ha, 0 to 100 scale, 0 no effect, 100 complete control.
[5] abbreviates: Rate 500 g/ha, 0 to 100 scale where 0 is no effect and 100 is complete control.

With `CCn1c(=O)on(C(=O)N(c2ccc(F)cc2)C(C)C)c1=O` [Compound 107], the “Plant response rating, Spring Barley” value with spring barley (Rate 62 g/ha, 0 to 100 scale) is 20; with spring barley (Rate 125 g/ha, 0 to 100 scale) it was 0; with spring barley (setting [1]), 30. The “Plant response rating, Barnyardgrass” value in the assay on barnyardgrass (Rate 140 g/ha) came to 70; in the assay on barnyardgrass (Rate 280 g/ha), 85; in the assay with barnyardgrass (Rate 560 g/ha) it was 90; in the assay on barnyardgrass (Rate 1120 g/ha), 95. Also, the “Plant response rating, Kochia” value stood at 5 in the assay on kochia (Rate 62 g/ha, 0 to 100 scale); 20 with kochia (Rate 125 g/ha, 0 to 100 scale); 15 with kochia (setting [1]). Moreover, the “Plant response rating H. beggarticks” value in the assay on hairy beggarticks (Rate 140 g/ha) amounted to 5; in the assay with hairy beggarticks (Rate 280 g/ha), 60; in the assay on hairy beggarticks (Rate 560 g/ha), 70; in the assay on hairy beggarticks (Rate 1120 g/ha), 95. The “Plant response rating, Wild buckwheat” value with wild buckwheat (setting [2]) was 60; in the assay with wild buckwheat (setting [3]), 90; with wild buckwheat (Rate 250 g/ha, 0 to 100 scale) it was 95. Besides, the “Plant response rating, Galium” value is given as 5 in the assay with galium (Rate 62 g/ha, 0 to 100 scale); 30 in the assay on galium (Rate 125 g/ha, 0 to 100 scale); 30 in the assay with galium (setting [1]). The “Plant response rating, Windgrass” value with windgrass (setting [2]) and in the assay with windgrass (setting [3]) was 100 each time. Besides, the “Plant response rating, Veronica hedera” value in the assay with ivyleaf speedwell (Rate 62 g/ha, 0 to 100 scale) was determined as 10; with ivyleaf speedwell (Rate 125 g/ha, 0 to 100 scale) it was 0; in the assay with ivyleaf speedwell (setting [1]) it was 10. The “Plant response rating, Giant foxtail” value is 70 in the assay with giant foxtail (Rate 280 g/ha), 95 in the assay on giant foxtail (Rate 560 g/ha) and 95 with giant foxtail (Rate 1120 g/ha). Further, the “Plant response rating, Russian thistle” value is listed as 0 in the assay with Russian thistle (Rate 62 g/ha, 0 to 100 scale); 0 in the assay on Russian thistle (Rate 125 g/ha, 0 to 100 scale); 0 in the assay on Russian thistle (setting [1]). Further, the “Plant response rating, Downy brome” value was found to be 0 with downy brome (Rate 62 g/ha) and 10 in the assay with downy brome (Rate 125 g/ha). The “Plant response rating, Downy brortie” value with downy brome stood at 0. The “Plant response rating, Rape” value with rape (Rate 62 g/ha, 0 to 100 scale) stood at 20; in the assay with rape (Rate 125 g/ha, 0 to 100 scale), 30; in the assay with rape (setting [1]), 50.

With `CCn1c(=O)on(C(=O)N(c2ccc(F)cc2F)C(C)C)c1=O` [Compound 116], the “Plant response rating, Spring Barley” value in the assay with spring barley (Rate 62 g/ha, 0 to 100 scale) is listed as 5; in the assay on spring barley (Rate 125 g/ha, 0 to 100 scale) it was 0; in the assay with spring barley (setting [1]), 10; with spring barley (setting [4]) it was 0. Also, the “Plant response rating, Barnyardgrass” value with barnyardgrass (Rate 140 g/ha) is reported as 55; in the assay on barnyardgrass (Rate 280 g/ha), 85; in the assay with barnyardgrass (Rate 560 g/ha), 90; with barnyardgrass (Rate 1120 g/ha) it was 90. The “Plant response rating, Kochia” value with kochia (Rate 62 g/ha, 0 to 100 scale) amounted to 0; in the assay on kochia (Rate 125 g/ha, 0 to 100 scale), 0; with kochia (setting [1]), 0; in the assay with kochia (setting [4]) it was 0. The “Plant response rating H. beggarticks” value in the assay on hairy beggarticks (Rate 140 g/ha) stood at 80; in the assay on hairy beggarticks (Rate 560 g/ha) it was 90. Besides, the “Plant response rating, Wild buckwheat” value in the assay with wild buckwheat (setting [3]) is 40; in the assay on wild buckwheat (Rate 250 g/ha, 0 to 100 scale), 60; with wild buckwheat (setting [5]), 95. Further, the “Plant response rating, Galium” value in the assay with galium (Rate 62 g/ha, 0 to 100 scale) is on record as 30; in the assay with galium (Rate 125 g/ha, 0 to 100 scale), 40; with galium (setting [1]) it was 40; in the assay with galium (setting [4]), 70. The “Plant response rating, Windgrass” value with windgrass (setting [3]) and with windgrass (setting [5]) was 100 each time. Also, the “Plant response rating, Veronica hedera” value with ivyleaf speedwell (Rate 125 g/ha, 0 to 100 scale) amounted to 0; in the assay with ivyleaf speedwell (setting [1]), 0; in the assay with ivyleaf speedwell (setting [4]) it was 70. The “Plant response rating, Giant foxtail” value in the assay on giant foxtail (Rate 280 g/ha) turned out to be 60; with giant foxtail (Rate 560 g/ha) it was 60; in the assay on giant foxtail (Rate 1120 g/ha) it was 85. Moreover, the “Plant response rating, Russian thistle” value in the assay with Russian thistle (Rate 62 g/ha, 0 to 100 scale) is reported as 40; with Russian thistle (Rate 125 g/ha, 0 to 100 scale) it was 0; in the assay with Russian thistle (setting [1]), 0; in the assay with Russian thistle (setting [4]), 0. The “Plant response rating, Downy brome” value with downy brome (Rate 62 g/ha) is 0; in the assay with downy brome (Rate 125 g/ha), 0; in the assay on downy brome (Rate 500 g/ha, 0 no effect, 100 complete control) it was 60. In the assay with downy brome, the “Plant response rating, Downy brortie” value stood at 30. Moreover, the “Plant response rating, Rape” value in the assay on rape (Rate 62 g/ha, 0 to 100 scale) turned out to be 10; with rape (Rate 125 g/ha, 0 to 100 scale), 0; in the assay on rape (setting [1]), 0; with rape (setting [4]), 30.

Turning to `CCOC(=O)Cn1c(=O)on(C(=O)N(c2ccc(F)cc2)C(C)C)c1=O` [Compound 128], the “Plant response rating, Morningglory” value with morningglory (Postemergence, Rate 1000 g/ha) is 0; in the assay on morningglory (Pre-emergence, Rate 2000 g/ha) it was 0.

For the compound `Cc1ccccc1Cn1c(=O)on(C(=O)N(c2ccc(Cl)cc2)C(C)C)c1=O` [Compound 136], the “Plant response rating, Morningglory” value in the assay on morningglory (Postemergence, Rate 1000 g/ha) worked out at 9; with morningglory (Pre-emergence, Rate 2000 g/ha) it was 0.
